Laboratory results taken from paper PMC12292521, “Discovery of a Potent Antimicrobial Peptide Through Rational Design: A New Frontier in Pathogen Control” (Biomolecules, 2025).
Peptide text beside a SMILES is read from it.

Tests used:
P. aeruginosa biofilm = test: Antibiofilm activity (crystal violet); format: cell-based, Pseudomonas aeruginosa; details: RKW at ½ and ¼ MIC (10 and 5 μM); OD 630 nm vs control; three independent experiments; ANOVA p < 0.05; greatest inhibition at ¼ MIC
Method: Therefore, the minimum inhibitory concentration (MIC) and MBC were evaluated. […] Subsequently, the antibiofilm activity of the peptide was tested according to Festa et al.. Specifically, two different concentrations of peptide were used, corresponding to ½ and ¼ of the estimated MIC value, which guarantee the optimal bacterial growth conditions necessary to allow biofilm production. Biofilm production (%) was calculated based on Optical Density (measured at 630 nm) outputs, compared to the control group.
To compare the percentages of biofilm production across different samples, a one-way analysis of variance (ANOVA) was conducted using Prism v. 10.0 (GraphPad, Graph-Pad Software, La Jolla, CA, USA). Significant differences between sample pairs were identified with Tukey’s post hoc test (p < 0.05).

[1] = Conformational stability by CD and fluorescence spectroscopy in SDS; format: physicochemical
Method: The secondary structure elements of the antimicrobial molecule were analyzed in a 0.1 cm optical path-length quartz cuvette (Hellma Analytics, Milan, Italy) using Jasco J-810 Circular Dichroism Spectropolarimeter (JASCO, Tokyo, Japan). All spectra were recorded at 25 °C in a wavelength range of 190–250 nm with a 1 nm bandwidth, a scanning speed of 20 nm/min, and averaged over five scans. The spectra as a function of SDS concentration (3, 50, and 150 mM) were obtained at 50 μM final concentration of peptide in 10 mM Tris-HCl buffer, pH 7.0. The folding kinetic analysis of the peptide was carried out after the addition of SDS (50 mM) to the sample (50 μM in 10 mM Tris-HCl, pH 7.0), up to 24 h incubation. […] Next, 50 mM of SDS was added to each sample, which was analyzed by CD spectroscopy after 48 h of incubation at 25 °C. […] All CD spectra of RKW were corrected by subtracting a blank spectrum of a sample containing all components except the peptide (baseline correction). The mean residue ellipticity ([θ], deg. cm^2 dmol^−1) was obtained by the equation [θ] = 100 θ/cnl, where θ is the ellipticity (mdeg), c is the peptide concentration (mM), n is the number of residues, and l is the path length (cm).
Fluorescence experiments were conducted in a Shimadzu RF-6000 spectrofluorometer (Kyoto, Japan). The analyses were performed by setting an excitation and emission slit width of 5 nm and using a quartz cell with a path length of 1 cm. The intrinsic tryptophan residues were excited at a wavelength of 280 nm, following the emission between 300 and 400 nm. The effects of SDS on the peptide folding, the folding kinetics, and the thermal and the pH stability were monitored as described in Section 2.2.

[2] = test system: Aspergillus brasiliensis ATCC 16404; test: Quantitative suspension test, fungicidal activity, BS EN 1650:2019; format: cell-based; set-up: key to Fungicidal activity verdict: Active: For fungi: ACTIVE if log R ≥ 4 according to BS EN 1650:2019; Not Active: For fungi: ACTIVE if log R ≥ 4 according to BS EN 1650:2019; details: spores, 60 min, 37 °C, BSA 0.3 g/L
Source text: (§1) The method is based on the suspension test according to BS EN 1276:2019, which specifies a quantitative suspension analysis for the evaluation of the bactericidal activity of chemical disinfectants and antiseptics used in food, industrial, domestic, and institutional areas against a panel of microorganisms under conditions that more closely simulate practical use. Briefly, S. aureus ATCC 6538, P. aeruginosa ATCC 15442, and Staphylococcus epidermidis ATCC 12228 were used as test organisms at a bacterial concentration of 1.0 × 10^8 colony-forming units (CFU) per mL (CFU/mL). In the test, BSA (Bovine Serum Albumin) (0.3 g/L) was used as an interfering substance to mimic clean conditions. […] The reaction mixture was incubated at 37 °C for 60 min before transferring each sample to a tube containing a neutralizer solution consisting of 30 g/L polysorbate 80, 1 g/L sodium thiosulfate, 3 g/L lecithin, 1 g/L tryptone, 8.5 g/L NaCl, 100 mL/L phosphate buffer and water. The negative control (untreated cells) was prepared using PBS instead of biocides. The solutions were then plated onto Tryptone Soy Agar (TSA) and incubated at 37 °C for 48 h to determine the logarithmic CFU/mL reduction, according to the following Equation:(2) log R = log (N0) − log (Na) where R refers to the reduction in viability, N refers to the number of CFU/mL in the test mixture at the beginning of the contact time, and Na refers to the number of CFU/mL in the test mixture at the end of the contact time. […] The test method and the minimum requirements for fungicidal activity of chemical disinfectant and antiseptic products were performed according to BS EN 1650:2019. The fungicidal activity was studied using the vegetative cells of Candida albicans ATCC 10231 and the spores of Aspergillus brasiliensis ATCC 16404 as test organisms. […] The mixture was maintained at 37 °C for a contact time of 60 min. At the end of this contact time, an aliquot was taken, and the fungicidal activity was immediately neutralized with a solution consisting of 30 g/L polysorbate 80, 1 g/L sodium thiosulfate, 3 g/L lecithin, 1 g/L tryptone, 8.5 g/L NaCl, 100 mL/L phosphate buffer and water. The samples were then plated onto malt extract agar (MEA) and incubated at 30 °C for 48 h to determine the numbers of surviving fungi as the logarithmic CFU/mL reduction, calculated according to Equation (2).

[3] = test system: Candida albicans ATCC 10231; test: as above; format: cell-based; set-up: key to Fungicidal activity verdict: Active: For fungi: ACTIVE if log R ≥ 4 according to BS EN 1650:2019; Not Active: For fungi: ACTIVE if log R ≥ 4 according to BS EN 1650:2019; details: vegetative cells, 60 min, 37 °C, BSA 0.3 g/L
Source text: as §1

Structure (SMILES): CC[C@H](C)[C@H](NC(=O)[C@H](Cc1c[nH]c2ccccc12)NC(=O)[C@H](CCCCN)NC(=O)[C@@H](N)CCCNC(=N)N)C(=O)N[C@@H](CC(C)C)C(=O)N[C@@H](CCCCN)C(=O)N[C@@H](Cc1c[nH]c2ccccc12)C(=O)N[C@@H](CC(C)C)C(=O)N[C@@H](CCCNC(=N)N)C(=O)N[C@H](C(=O)N[C@@H](Cc1c[nH]c2ccccc12)C(=O)N[C@@H](CCCCN)C(=O)N[C@@H](CCCCN)C(N)=O)[C@@H](C)O [RKW] (H-RKWILKWLRTWKK-NH2; N-terminus assumed)
- Biofilm production (P. aeruginosa biofilm): significantly inhibited the biofilm production
- α-helical conformation over time in SDS ([1]; 50 μM peptide, 10 mM Tris-HCl pH 7.0, 50 mM SDS, 25 °C, up to 24 h, CD and fluorescence): did not markedly change its α-helical conformation
- Helical content at extreme acidic pH ([1]; 50 μM peptide, 10 mM glycine-HCl pH 2.0, 50 mM SDS, 48 h at 25 °C, CD): entirely disordered
- Structural and folding stability in SDS micellar solution under other pH and temperature conditions ([1]; 50 μM peptide, 50 mM SDS, pH 7.0 and 11.0 at 25 °C, 4, 37 and 90 °C at pH 7.0, 48 h, CD and fluorescence): not markedly affected
- Time the α-helical conformation remains stable in a wide range of pH and temperature ([1]; membrane-like environment (SDS), abstract): at least 48 h
- Fungicidal activity verdict ([2]; RKW 5 µM): Na = 3.40 × 10^6 log Na = 6.53 log R = −0.28 Not Active
- Na (CFU/mL at the end of the contact time) ([2]; RKW 5 µM): 3.40 × 10^6 CFU/mL
- Fungicidal activity verdict ([2]; RKW 10 µM): Na = 3.30 × 10^6 log Na = 6.52 log R = −0.29 Not Active
- Na (CFU/mL at the end of the contact time) ([2]; RKW 10 µM): 3.30 × 10^6 CFU/mL
- Fungicidal activity verdict ([2]; RKW 20 µM): Na = 2.20 × 10^6 log Na = 6.34 log R = −0.09 Not Active
- Na (CFU/mL at the end of the contact time) ([2]; RKW 20 µM): 2.20 × 10^6 CFU/mL
- Fungicidal activity verdict ([2]; RKW 50 µM): Na = 2.20 × 10^6 log Na = 6.34 log R = −0.09 Not Active
- Na (CFU/mL at the end of the contact time) ([2]; RKW 50 µM): 2.20 × 10^6 CFU/mL
- Fungicidal activity verdict ([2]; RKW 100 µM): Na = 2.20 × 10^6 log Na = 6.34 log R = −0.09 Not Active
- Na (CFU/mL at the end of the contact time) ([2]; RKW 100 µM): 2.20 × 10^6 CFU/mL
- Fungicidal activity verdict ([3]; RKW 5 µM): Na = 7.70 × 10^4 log Na = 4.89 log R = 1.71 Not Active
- Na (CFU/mL at the end of the contact time) ([3]; RKW 5 µM): 7.70 × 10^4 CFU/mL
- Fungicidal activity verdict ([3]; RKW 10 µM): Na = 1.08 × 10^3 log Na = 3.03 log R = 3.57 Not Active
- Na (CFU/mL at the end of the contact time) ([3]; RKW 10 µM): 1.08 × 10^3 CFU/mL
- Fungicidal activity verdict ([3]; RKW 20 µM): Na = 2.75 × 10^2 log Na = 2.44 log R = 4.16 Active
- Na (CFU/mL at the end of the contact time) ([3]; RKW 20 µM): 2.75 × 10^2 CFU/mL
- Fungicidal activity verdict ([3]; RKW 50 µM): Na = 2.75 × 10^2 log Na = 2.44 log R = 4.16 Active
- Na (CFU/mL at the end of the contact time) ([3]; RKW 50 µM): 2.75 × 10^2 CFU/mL
- Fungicidal activity verdict ([3]; RKW 100 µM): Na = 2.75 × 10^2 log Na = 2.44 log R = 4.16 Active
- Na (CFU/mL at the end of the contact time) ([3]; RKW 100 µM): 2.75 × 10^2 CFU/mL
